Test results: patent publication US20250170098A1, “MOLECULAR JACKHAMMER FOR MECHANICAL DESTRUCTION OF CELLULAR STRUCTURE” (William Marsh Rice University, priority 2022, published 2025)

Legend:
A375 cells = experiment: Clonogenic assay; assay type: cell-based, human
Protocol: The clonogenic assay was conducted to confirm that cancer cells treated by plasmon-driven MJH are indeed death upon NIR-light activation (FIG. 18). Three molecules were analyzed: the most VDA active BL-204, medium active BL-141-2 and low active Cy7-amine. […] This was accomplished by incubating the MJH molecules with the A375 cells for 50 min and immediately activate the plasmon-driven MJH using 730 nm NIR-light at 80 mW/cm^2 for 10 min. This is considered a short contact time between the MJH and the A375 cells.
Clonogenic assay. A375 cells were seeded in 35 mm cell culture dishes at predetermined densities to allow for an approximately equal number of resultant colonies. The next day, cells were treated with Cy7.5-amine at variable concentration and with or without 730 nm light at 80 mWcm^−2 for 10 min. The cells were incubated with Cy7.5-amine for 50 min before the illumination, the media was replaced with fresh media after the illumination and cells were cultured for 6 days to allow for colony formation. Cells were then washed once with PBS and fixed-stained in a 0.5% (w/v) crystal violet in methanol/water solution (1:1) during 10 min. The excess of crystal violet was washed off with water, the plates were dried at room temperature and then the colonies were counted using ImageJ software version 1.52a, and the survival fraction was determined. All treatments were in triplicate.

[1] = test system: human melanoma A375 cells; experiment: Cell permeabilization to DAPI, flow cytometry analysis; assay type: cell-based
Protocol: The activity of plasmon-driven MJHs to open cell membranes by VDA upon NIR light-activation was evaluated in human melanoma A375 cells. When the cell membranes were open by VDA, DAPI enters immediately into the cells and stain the nucleus, and flow cytometry analysis was used to quantify the percentage of DAPI positive cells at variable concentrations of MJH. The flow cytometry analysis is conducted immediately after the cells were treated with 730 nm LED light at 80 mW/cm^2 for 10 min. Typically, it took ˜30 s to start cell counting and observe that DAPI already had entered into the cell membrane-compromised cells but not in the controls without VDA action. This is indicative of a rapid necrotic cell death and cell membrane permeabilization to DAPI by VDA action. The effective concentration needed to permeabilize cells by 50% (VDA IC50) was estimated for each molecule.
The flow cytometry data was analyzed using FlowJo software version 10.5.3. Then, a wide polygonal gate was drawn as shown in FIG. 33A since we were interested in detecting any cell death after treatment, we were not only interested in measuring healthy cell populations. Sometimes, we observed that the death cell population upon treatment shifted outside the gate if a narrow gate was used. Then, the singlets were selected and the DAPI fluorescence intensity was plotted versus the SSC-A and the gate for DAPI positive cells was drawn as shown in FIG. 33C and the analysis was applied to all samples in the group. In FIG. 33D, a DAPI positive population is observed in the same analysis group. This analysis was applied to calculate the percentage of DAPI positive cells.
Cell Permeabilization and flow cytometry analysis. A375 cells were cultured as described before. One day before the treatment, cells were inoculated at 5 million cells per dish (10 cm polystyrene tissue culture dish). The cells were harvested using 0.05% trypsin-EDTA (Gibco, 25-300-054), then the cells were counted and were adjusted to a cell density of 2×10^5 cells/mL in DMEM media with L-glutamine, 4.5 g/L glucose, and sodium pyruvate (Corning Inc. 10013CV) and supplemented with 10% FBS (Corning, 35010CV), 2×MEM vitamin solution (Gibco, 11120052), 1×MEM non-essential amino acid solution (Gibco, 11140050) and penicillin/streptomycin. 1 mL of this cell suspension containing 2×10^5 cells was used in each treatment. In a 1.5 mL Eppendorf tube, […] containing 2 mM Cy7.5-amine (or other cyanine molecule or other concentration) in DMSO (Fisher, 99.7%) was placed in the bottom of the tube, then 1 mL of the cell suspension was added into the tube to get final concentration of 2 μM of Cy7.5-amine containing 0.1% DMSO and 2×10^5 cells. The mixture was then incubated at 37° C. and 5% CO2 for 30 min. Then, 1 mM DAPI was added into the cell suspension. Then, the cells suspension was transferred to a […] tissue culture dish and immediately the cells were treated under the light beam of NIR light of 730 nm at 80 mW/cm^2 (or adjusted powers down to 20 mW/cm^2) for 10 min (or adjusted illumination times down to 30 s) using LED light source (PRIZMATIX, UHP-F-730, Israel) which covered the entire dish. While the cells were treated, the dish was placed on top of an aluminum block painted black, so that the excess NR light and that was not reflected back into the cell suspension while the aluminum block actED as a heat-sink, maintaining a constant temperature in the dish during the irradiation. The instrument for flow cytometry analysis (SONY, MA900 Multi-Application Cell Sorter) was already set up and calibrated by the time the light treatment was finished. Therefore, as soon as the 10-min light treatment was completed, the cell suspension was rapidly transferred from the 35 mm dish to a flow cytometry tube and the cells were analyzed for DAPI permeabilization and Cy7.5-amine binding. It took ˜30 s to load the sample and to start the analysis. […]

CN1/C(=C\C=C2C=C(/C=C/C3=[N+](CCCCCC(=O)NCCCCCCN)c4ccc5ccccc5c4C3(C)C)CCC\2)C(C)(C)c2c1ccc1ccccc21 [Cy7.5-amine]
cells eradicated, clonogenic assay (A375 cells; 0.5 μM, 10 min 730 nm light at 80 mWcm^−2): 100% | eradication of A375 cells, clonogenic assay (in words) (A375 cells; 1 μM + light (80 mWcm^−2 of 730 nm for 10 min)): complete eradication | permeabilization to DAPI staining, percentage of cells ([1]; 1 μM, 730 nm LED at 80 mW/cm^2 for 10 min): 99.6% | binding to cells upon addition of acetic acid ([1]; 2 μM, acetic acid 0 mM-10 mM): not able to bind efficiently to lipid membranes
